Measured values published in US11952433B2, “Heterochiral peptide-complex and composition for measuring nuclear magnetic resonance spectroscopy residual dipolar coupling containing self-assembled intermediates of heterochiral peptide-complex” (INDUSTRY-ACADEMIC COOPERATION FOUNDATION, YONSEI UNIVERSITY, priority 2020, dated 2024).

Tests used:
[1] = Wide-angle X-ray scattering (WAXS) of the colloidal crystal solution; format: physicochemical; settings: for WAXS d-spacing, intersheet distance / WAXS reflection d (second reflection) / WAXS reflection d, interstrand distance of β-sheets: 3.0 mg/mL, room temperature
Protocol: Wide-angle X-ray scattering analysis was performed using the 4C SAXS II beamline (BL) of the Pohang Accelerator Laboratory (PAL, Korea). In-vacuum undulator 20 of the Pohang Light Source II storage ring was used as a beam source, and a vertical toroidal focusing mirror was used to deliver an X-ray beam of 0.675 Å. 100 μL of the sample solution was mounted in a quartz microcapillary with a thickness of 10 μm and a length of 80 mm. The sample was irradiated for 5 seconds of exposure time at room temperature. The concentrations of the samples of Comparative Examples 1-2 and Example 1 (T-W6, T-w6 and T-(wW)3) were all 3.0 mg/mL. The X-ray scattering patterns were collected by using a charge-coupled detector (Mar USA, Inc.) positioned 20 cm apart from the sample (0.25 Å^−1<q<2.00 Å^−1).
The data were captured in six continuous frames of 0.1 minute each to minimize the damage from irradiation. Each 2D scattering pattern was averaged circularly from the beam focus and normalized to the intensity of the transmitted X-ray beam. The transmitted beam intensity was monitored with a scintillation counter. The scattering pattern of water was used as the experimental background.
However, the detailed molecular arrangement of the peptide in each crystal might be different. To address this question, wide-angle X-ray scattering (WAXS) analysis of the colloidal crystal solution was performed.

[2] = Time course of self-assembly in solution by CD and AFM; format: physicochemical; settings: in water; for self-assembly kinetics (in words): CD and AFM with time
Protocol: The CD spectra of the peptide complexes in aqueous solution were acquired using a Chirascan™ CD spectrometer. All the peptide complexes were adjusted to 20 μM with DI water and then incubated at room temperature for 2 hours. The CD spectra were recorded using a 2-mm path-length cuvette from 250 nm to 190 nm at 25° C. Each spectrum was collected by averaging three scans and corrected for the distilled water background spectrum.
The peptide complex samples were diluted to 20 μM and 10 μL was dropped onto a freshly cleaved mica plate. After 1 minute of incubation, the mica plate was washed with 100 μL of doubly distilled water and then the residual solution was gently removed using filter paper. After completely drying at room temperature, AFM measurement was made. The AFM scans were conducted at noncontact mode (NCM) with a Park NX10 instrument (Park Systems, Korea). The scanning was performed at a scan rate of 0.3 Hz and a Z-gain of 1.
All the peptide samples were diluted to 1 mM and divided into 1-mL aliquots. The aliquots were heated at 95° C. for 1 hour and slowly annealed in a water bath overnight. After the annealing process, the samples were incubated at room temperature and the self-assembly process with time was analyzed by CD, AFM, WAXS, NMR, etc.

Substance	WAXS d-spacing, intersheet distance [1] [Å]	WAXS reflection d (second reflection) [1] [Å]	WAXS reflection d, interstrand distance of β-sheets [1] [Å]	self-assembly kinetics (in words) [2]	time after which the increase in CD signals had almost ceased (self-assembly equilibrium) ([2]; room temperature after annealing) [weeks]	distance between the β strands [1]
PEGylated (D)Trp-(D)Trp-(D)Trp-(D)Trp-(D)Trp-(D)Trp [Comparative Example 2]	17.5	5.8	4.7			
PEGylated (L)Trp-(D)Trp-(L)Trp-(D)Trp-(L)Trp-(D)Trp [Example 2]				same slow assembly kinetics		
PEGylated (L)Trp-(L)Trp-(L)Trp-(L)Trp-(L)Trp-(L)Trp [Comparative Example 1]	17.5	5.8	4.7			
(D)Trp-(L)Trp-(D)Trp-(L)Tre-(D)Trp-(L)Trp [Example 1]	17.0	5.6	4.7	markedly slower self-assembly kinetics	2	4.56-4.92 Å
